Measurements: patent US9982006B2, “2′-chloro aminopyrimidinone and pyrimidine dione nucleosides” (Gilead Sciences, Inc., priority 2014, dated 2018)
pEC50: −log10 of the molar value.

System: RSV strain A2
Experiment: RSV cell culture EC50 determination (infectious cytopathic cell protection assay in HEp-2 cells)
Format: cell-based
Settings: human respiratory syncytial virus, 96 h; inhibition of RSV-induced cytopathic effect in HEp-2 cells, 4 days, Cell TiterGlo readout
Method: RSV Cell Culture EC50 Determination
Antiviral activity against RSV is determined using an infectious cytopathic cell protection assay in HEp-2 cells. In this assay, compounds inhibiting viral infection and/or replication produce a cytoprotective effect against the virus-induced cell killing that can be quantified using a cell viability reagent. The techniques used here are novel adaptations of methods described in published literature (Chapman et al., Antimicrob Agents Chemother. 2007, 51(9):3346-53.)
HEp-2 cells are obtained from ATCC (Manassas, VI) and maintained in MEM media supplemented with 10% fetal bovine serum and penicillin/streptomycin. […]
For antiviral tests, HEp-2 cells are grown in large cell culture flasks to near confluency but not fully so. […] Each compound dilution is transferred in single or quadruplicate samples into dry assay plates, which are stored until assay is ready to go. […]
Subsequently, an infectious mixture is prepared using an appropriate dilution of virus stock previously determined by titration with cells at a density of 50,000/ml and 20 uL/well is added to test plates w/compounds via automation (uFlow, Biotek). […] After the incubation, a cell viability reagent, Cell TiterGlo (Promega, Madison, Wis.) is added to the assay plates, which are incubated briefly, and a luminescent readout is measured (Envision, Perkin Elmer) in all the assay plates. […]

pEC50: < 4.30
SMILES: Nc1ccn([C@@H]2O[C@@](CO)(CCl)[C@@H](O)[C@H]2Cl)c(=O)n1 [Example 1, 4-amino-1-((2R,3R,4R,5R)-3-chloro-5-(chloromethyl)-4-hydroxy-5-(hydroxymethyl)tetrahydrofuran-2-yl)pyrimidin-2(1H)-one]
